# “Also recorded” adds a separate entry of the source.
# Columns and labels:
# [1] = test system: HDMECs infected with Nm2C4.3; assay: Cytoskeleton remodelling and cell junction integrity of infected HDMEC (immunofluorescence); type: cell-based, human; settings: Gentamicin 150 μg/ml 1 h, Trifluoperazine 50 μM applied after gentamicin
# Description: (A) Experimental procedure: HDMEC were infected for 2 h with Nm2C4.3, treated for 1 h with gentamicin (150 μg/ml) and then 15 min with Trifluoperazine (50 μM) (or solvent alone as a control) and left in medium for 1 h before fixation. (B) Upper panels: Representative fluorescence microscopy showing the effect on the endothelial cell cytoskeleton remodelling analysed by immunostaining of Ezrin and Actin. Lower panels: Effect on the endothelial cell junction integrity was analysed by immunostaining of Actin and VE-cadherin. (C) Quantification of the bacterial colonization (upper panel) Ezrin recruitment and cortical actin polymerization at sites of bacterial adhesion (lower panel) was performed using Image J software.
# HDMECs were grown in their specific culture medium (Promocell #C-12210) and confluent monolayers were infected with 2C4.3. Briefly, bacteria were precultured in prewarmed cell culture medium for 1 h 30 min at 37° C. 5% CO2. The OD600 was adjusted to 0.1 and HDMECs were then overlaid with bacteria for 30 min (MOI of 100). Unbound bacteria were removed by three washes in cell culture media and infection was allowed to proceed for 1 h at 37° C. 5% CO2. Gentamicin was added at 150 μg/ml for 1 h, then after three washes in cell culture media, Trifluoperazine was applied where mentioned at 50 μM for 20 min. After three washes in cell culture media, cells were allowed to recover for 1 h in cell culture media. At the indicated time, cells were fixed with 4% Paraformaldehyde for 10 min. Immunolabelling was then performed as above described in example 4, using DAPI, Alexa Fluor 633 Phalloidin, Polyclonal antisera raised against Ezrin, obtained from Pr P. Mangeat (CRBM, Montpellier, France) and anti-human VE-Cadherin (eBioscience #BMS158).
# [2] = test system: N. meningitidis 2C4.3 aggregates; type: cell-based, Neisseria meningitidis; settings: for dispersion of bacterial aggregates formed in suspension: aggregates pre-formed 2 h, 20 min, Trifluoperazine 10-40 μM, Gentamicin 150 μg/ml, Cefotaxim 20 μg/ml
# Description: N. meningitidis 2C4.3 was grown in liquid culture at 10^7 CFU/ml for 2 h to form bacterial aggregates and were treated with increasing concentrations of Trifluoperazine (10 to 40 μM), Gentamicin (150 μg/ml) or cefotaxim (20 μg/ml) for 20 minutes and bacterial aggregates were immediately visualized using a phase-contrast microscope. […] (B) Quantification of the bacterial aggregation was performed using Image J software.
# N. meningitidis 2C4.3 wild type strain and the isogenic derivative mutant PilT ([…]PiIT) were grown in liquid culture at 10^7 CFU/ml for 2 h to form bacterial aggregates and then treated with 50 μM Trifluoperazine. Time lapse phase-contrast video microscopy was performed to visualize the effect on bacterial aggregates over time. Images were taken at the indicated time points of the video.
# N. meningitidis 2C4.3 was grown in liquid culture at 10^7 CFU/ml for 2 h to form bacterial aggregates and were treated with 30 μM Trifluoperazine for 30 minutes to induce bacterial dispersion or PBS as a control. The medium was replaced to remove the Trifluoperazine and the reformation of bacterial aggregates were visualized overtime using a phase-contrast microscope.
# Bacteria were grown in suspension for 2 h then Phenothiazine derivatives were added at the indicated concentrations.
# N. meninigitidis 2C4.3 strain was grown in suspension in wells of a 24 well plate, containing 1 ml of DMEM medium supplemented with 10% heat-inactivated fetal calf serum. After 2 h of growth, Trifluoperazine (or control vehicle) was added at various concentrations ranging from 10 to 40 μM for 20 min and the bacterial aggregates were visualized over time using a phase-contrast microscope.
# N. meninigitidis 2C4.3 strain was grown in suspension in wells of a 24 well plate, containing 1 ml of DMEM medium supplemented with 10% heat-inactivated fetal calf serum. After 2 h of growth, various concentrations (0.5 to 80 μM) of phenothiazine-derivative compounds or control vehicle (PBS or DMSO) were added to the wells for 30 min and the bacterial aggregates were visualized using a phase-contrast microscope. Were tested phenothiazine-derivative compounds of: • the Piperazine group: Trifluoperazine (Sigma #T8516), Fluphenazine (Sigma #F4765), Prochlorperazine (Sigma #P9178) Perphenazine (Sigma #P6402); • the Piperidine group: Thioridazine (Sigma #T9025) and Mesoridazin (Sigma #M4068); • the Aliphatic group: Chlorpromazine (Sigma #C8138), Promazine (Sigma #P6656), Triflupromazine (Sigma #1686003) and levomepromazine (Sigma #L0500000).
# [3] = test system: N. meningitidis Nm2C4.3 strain; assay: Bactericidal activity, colony forming unit count after treatment in liquid culture; type: cell-based, Neisseria meningitidis; settings: 15 min; for bactericidal effect: Gentamicin 150 μg/ml, Trifluoperazine 10 to 50 μM
# Description: N. meningitidis Nm2C4.3 strain grown in liquid culture at 10^7 CFU/ml were treated with increasing concentrations of Trifluoperazine (10 to 50 μM) or Gentamicin (150 μg/ml) for 15 minutes (A) Bactericidal activity was determined by the count of colony forming units on GCB agar plates 24 h after treatment. (B) Images of the non-treated bacteria or bacteria treated with 30 μM TFP grown for 24 h on GCB agar plates.
# Nm2C4.3, a piliated capsulated Opa^−Opc^− variant of the serogroup C meningococcal clinical isolate 8013, was cultured in Dulbecco's Modified Eagle Medium (DMEM) 4.5 g/L-Glutamax media 0.1% BSA during two hours at 37° C. 5% CO2. A bacterial suspension at optical density (OD) 0.1 was then distributed in 24-well plate (1 ml/well). After 1 hour of incubation, Trifluoperazine (Sigma #T8516, stock solution in PBS) was added to obtain final concentrations of 10, 20, 30, 40, and 50 μM. Gentamicin (150 μg/ml in DMEM) and PBS alone were used as controls. After 15 min treatment, serial dilutions were performed in physiological water and 100 μl of each dilution were plated on Petri dishes containing GCB solid media (BD, Difco GC media) containing supplements, incubated overnight and the colony forming units were counted.
SMILES,Ezrin recruitment and cortical actin polymerization at bacterial adhesion sites [1],VE-cadherin staining / endothelial cell junction integrity [1],bacterial colonies at the endothelial cell surface [1],dispersion of bacterial aggregates formed in suspension [2],bactericidal effect [3],"reversibility of the effect on aggregation upon removal of the drug ([2]; 30 μM for 30 minutes, then medium replaced)","time after addition within which dispersion of aggregates occurs ([2]; time lapse video microscopy, 50 μM) [min]","viable count of the culture ([3]; Trifluoperazine 10 to 30 μM, culture contained 10^7 CFU/ml)"
"CN[C@@H]1[C@@H](O)C(O[C@@H]2[C@@H](O)[C@H](O[C@H]3O[C@H]([C@@H](C)NC)CC[C@H]3N)[C@@H](N)C[C@H]2N)OC[C@]1(C)O (stereo partly drawn) [Gentamicin, (3R,4R,5R)-2-{[(1S,2S,3R,4S,6R)-4,6-diamino-3-{[(2R,3R,6S)-3-amino-6-[(1R)-1-(methylamino)ethyl]oxan-2-yl]oxy}-2-hydroxycyclohexyl]oxy}-5-methyl-4-(methylamino)oxane-3,5-diol]","still induced Ezrin recruitment, cortical actin polymerization",discontinuous distribution of VE-cadherin,reduced the number of colonies,did not significantly induce the dispersion,killed all bacteria,–,–,–
CN1CCN(CCCN2c3ccccc3Sc3ccc(C(F)(F)F)cc32)CC1 [Trifluoperazine],Few Ezrin recruitment,preserved endothelial cell junction integrity,induced their dispersion; also recorded: induced the dispersion of most of the bacterial colonies,induced their dispersion,moderate bactericidal effect,reversible,10 to 15,10^6 CFU/ml
